Laboratory results published in ChEMBL document CHEMBL3862009 (Bioorg Med Chem Lett, 2016).

Assays:
Histamine H4 receptor [1] = target: T1, Histamine H4 receptor (Homo sapiens, UniProt Q9H3N8); assay: Intrinsic activity at human histamine H4 receptor expressed in human SH-SY5Y cell membranes by [35S]GTPgammaS binding assay; type: functional
Histamine H4 receptor [2] = target: T1, Histamine H4 receptor; assay: Antagonist activity at human histamine H4 receptor expressed in human SH-SY5Y cell membranes assessed as inhibition of Imetit-induced [35S]GTPgammaS binding; type: functional
Histamine H3 receptor [3] = target: T2, Histamine H3 receptor (Homo sapiens, UniProt Q9Y5N1); assay: Displacement of [125I]iodoproxyfan from human H3 receptor expressed in HEK293 cell membranes after 1 hr
Histamine H3 receptor [4] = target: T2, Histamine H3 receptor; assay: Antagonist activity at human histamine H3 receptor
HEK293 = assay: Selectivity ratio of Ki for human H3 receptor expressed in HEK293 cell membranes to Kb for human histamine H4 receptor expressed in human SH-SY5Y cell membranes; type: cell-based
Histamine H3 receptor [5] = target: T2, Histamine H3 receptor; assay: Binding affinity to histamine H3 receptor (unknown origin)
Histamine H4 receptor [6] = target: T1, Histamine H4 receptor; assay: Binding affinity to histamine H4 receptor (unknown origin)

T1 sequence (Q9H3N8 whole entry): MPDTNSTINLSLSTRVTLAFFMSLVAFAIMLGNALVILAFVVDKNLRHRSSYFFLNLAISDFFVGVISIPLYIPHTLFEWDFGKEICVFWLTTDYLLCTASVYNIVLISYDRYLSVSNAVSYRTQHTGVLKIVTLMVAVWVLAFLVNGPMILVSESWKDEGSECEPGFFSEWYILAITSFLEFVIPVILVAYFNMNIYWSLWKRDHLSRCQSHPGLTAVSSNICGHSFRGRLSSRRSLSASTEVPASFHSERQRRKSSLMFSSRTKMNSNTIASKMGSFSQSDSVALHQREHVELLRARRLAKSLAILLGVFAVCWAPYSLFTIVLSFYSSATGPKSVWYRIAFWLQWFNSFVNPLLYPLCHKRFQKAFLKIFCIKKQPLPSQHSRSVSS
T2 sequence (Q9Y5N1 whole entry): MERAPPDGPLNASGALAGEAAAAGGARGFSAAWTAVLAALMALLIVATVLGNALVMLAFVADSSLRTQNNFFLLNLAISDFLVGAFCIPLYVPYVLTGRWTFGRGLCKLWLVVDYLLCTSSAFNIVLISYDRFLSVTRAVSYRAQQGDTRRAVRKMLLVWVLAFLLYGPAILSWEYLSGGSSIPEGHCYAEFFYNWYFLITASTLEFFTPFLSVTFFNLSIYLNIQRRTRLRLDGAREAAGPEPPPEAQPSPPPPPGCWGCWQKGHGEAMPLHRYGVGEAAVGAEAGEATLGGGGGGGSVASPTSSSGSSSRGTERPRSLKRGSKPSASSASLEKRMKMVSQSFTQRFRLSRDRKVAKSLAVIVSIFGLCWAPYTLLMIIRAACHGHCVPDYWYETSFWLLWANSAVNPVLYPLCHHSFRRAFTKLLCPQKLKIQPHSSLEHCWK

Structure (SMILES): c1ccc(C(OCCCc2c[nH]cn2)c2cccnc2)cc1 (configuration not stated)
- Intrinsic activity (Histamine H4 receptor [1]): 0
- Kb (Histamine H4 receptor [2]): 32 nM

Structure (SMILES): c1ccc(C(OCCCc2c[nH]cn2)c2cncnc2)cc1 (configuration not stated)
- Intrinsic activity (Histamine H4 receptor [1]): 0
- Kb (Histamine H4 receptor [2]): 29 nM

Structure (SMILES): c1ccc(C(OCc2c[nH]cn2)c2nc3ccccc3s2)cc1 (configuration not stated)
- Intrinsic activity (Histamine H4 receptor [1]): 0
- Kb (Histamine H4 receptor [2]): 399 nM

Structure (SMILES): c1ccc(C(OCCCn2ccnc2)c2nc3ccccc3s2)cc1 (configuration not stated)
- Intrinsic activity (Histamine H4 receptor [1]): 0
- Kb (Histamine H4 receptor [2]): > 10000 nM

Structure (SMILES): c1ccc(C(OCCc2c[nH]cn2)c2nc3ccccc3s2)cc1 (configuration not stated)
- Intrinsic activity (Histamine H4 receptor [1]): 0
- Kb (Histamine H4 receptor [2]): 3.7 nM

Structure (SMILES): c1ccc(C(OCCCc2c[nH]cn2)c2ccccc2)cc1
- Ki (Histamine H3 receptor [3]): 17 nM
- Ki (Histamine H3 receptor [4]): 17 nM
- Intrinsic activity (Histamine H4 receptor [1]): 0
- Kb (Histamine H4 receptor [2]): 19 nM
- Selectivity ratio (HEK293): 0.9

Structure (SMILES): Cc1[nH]cnc1CCCOC(c1ccccc1)c1nc2ccccc2s1 (configuration not stated)
- Intrinsic activity (Histamine H4 receptor [1]): 0
- Kb (Histamine H4 receptor [2]): 1.6 nM

Structure (SMILES): c1ccc(C(OCCCCn2ccnc2)c2nc3ccccc3s2)cc1 (configuration not stated)
- Intrinsic activity (Histamine H4 receptor [1]): 0
- Kb (Histamine H4 receptor [2]): > 10000 nM

Structure (SMILES): Cn1cncc1CCCOC(c1ccccc1)c1nc2ccccc2s1 (configuration not stated)
- Intrinsic activity (Histamine H4 receptor [1]): 0
- Kb (Histamine H4 receptor [2]): > 10000 nM

Structure (SMILES): c1ccc(C(OCCCc2c[nH]cn2)c2nc3ccccc3s2)cc1 (configuration not stated)
- Ki (Histamine H3 receptor [3]): 34 nM
- Intrinsic activity (Histamine H4 receptor [1]): 0
- Kb (Histamine H4 receptor [2]): 1.1 nM
- Selectivity ratio (HEK293): 31

Structure (SMILES): c1ccc(C(OCCn2ccnc2)c2nc3ccccc3s2)cc1 (configuration not stated)
- Intrinsic activity (Histamine H4 receptor [1]): 0
- Kb (Histamine H4 receptor [2]): > 10000 nM

Structure (SMILES): Cn1cnc(CCCOC(c2ccccc2)c2nc3ccccc3s2)c1 (configuration not stated)
- Intrinsic activity (Histamine H4 receptor [1]): 0
- Kb (Histamine H4 receptor [2]): > 10000 nM

Structure (SMILES): c1ccc(C(OCCCc2c[nH]cn2)c2ccc3ccccc3c2)cc1 (configuration not stated)
- Intrinsic activity (Histamine H4 receptor [1]): 0
- Kb (Histamine H4 receptor [2]): 100 nM

Structure (SMILES): Cn1cnc(CCN)c1 [N-METHYLHISTAMINE]
- Ki (Histamine H3 receptor [5]): 20000 nM
- Ki (Histamine H4 receptor [6]): 11000 nM

Structure (SMILES): Cc1nc(CCCOC(c2ccccc2)c2nc3ccccc3s2)c[nH]1 (configuration not stated)
- Intrinsic activity (Histamine H4 receptor [1]): 0
- Kb (Histamine H4 receptor [2]): > 10000 nM

Structure (SMILES): c1ccc(-c2ccc(C(OCCCc3c[nH]cn3)c3ccccc3)cc2)cc1 (configuration not stated)
- Intrinsic activity (Histamine H4 receptor [1]): 0
- Kb (Histamine H4 receptor [2]): 17 nM
